Assay results from patent publication US20250263370A1 (Tay Therapeutics Limited, priority 2022, published 2025).
Like-named read-outs stand apart in the source and are kept apart here.

Key:
[1] = Beagle dog PK study 1 of Example 101 (propylene glycol-based formulation, IV and PO), with clinical observations; assay type: in vivo; conditions: for concentration at 0.083 h / concentration at 0.25 h / concentration at 0.5 h / concentration at 1 h / concentration at 2 h / concentration at 4 h / concentration at 8 h / concentration at 24 h / AUC(0-inf) / AUC(0-t) / C0 / half-life / MRT inf / Vd / Cmax / Tmax: beagle, dog, plasma; for concentration at 0.083 h / concentration at 0.25 h / concentration at 0.5 h / concentration at 1 h / concentration at 2 h / concentration at 4 h / concentration at 8 h / concentration at 24 h: dog PK study 1, IV; for MRT inf: read-out: MRTInf—obs; for Vd: read-out: Vss—obs; for animal's temperature: test animal 3 in group 1 (1 mg/kg IV)
Protocol: The purpose of this study was to examine the pharmacokinetics of Example 101 in beagle dogs. […] An oral PK study was also undertaken in Lewis rats—see Experimental Method C.
Body weight was recoded prior to dosing, and detailed clinical observations were made prior to dosing and throughout the study, as needed.
Subsequently, 17.320 mL Vitamin E TPGS was added, and the solution was vortexed and sonicated. Then, 51.960 mL water was added, and solution was then heated. […] Subsequently, 39.894 mL Vitamin E TPGS was added, and the solution was vortexed and sonicated. Then, 119.682 mL water was added, and the solution was heated.
Blood samples (˜0.3 mL) were collected according to a schedule (detailed below) by venipuncture of peripheral veins except for the dosing vein, and EDTA-K2 was used as anticoagulant. Within 30 minutes of collection, the samples were centrifuged at approximately 2000×g for 10 minutes at 4° C. to obtain blood plasma. The plasma samples were immediately divided into two aliquots (˜75 μL each), transferred to a cryogenic vial, and stored in a freezer at −75±15° C. prior to analysis. […]
The experiments were conducted on a Shimadzu DGU-20A5R and AB API 5500+LC/MS/MS instrument with an Agilent Poroshell EC-C18 4 μm (50×2.1 mm) column. A gradient of 95% water (0.1% formic acid)/95% acetonitrile (0.1% formic acid) was used as the mobile phase. The sample injection volume was 1 μL, and the flow rate was 0.6 mL/min. The gathered data were used for pharmacokinetic calculations using T½, C0, AUClast, AUCinf, MRTinf, CI, Vss, and Number of Points for Regression as parameters.

[2] = Plasma stability assay, human plasma; assay type: in vitro ADME; conditions: Method 1 (5 μM)
Protocol: From stock solution of compound in 10 mM DMSO, a working solution of 1 mM is prepared by diluting the compound in DMSO. To 398 μL of plasma pre-warmed at 37° C. for 15 minutes), 2 μL of working solution of compound is added, resulting in a final concentration of 5 μM (0.5% DMSO) for the compound. The sample is then incubated at 37° C. Aliquot is withdrawn at specified time-points (0, 15, 30, 60 and 120 mins). The reaction is stopped by addition of 450 μL cold acetonitrile containing internal standard (IS). […] Aliquots of the supernatant is analysed using LC-MS/MS. The percent remaining of the compound at each time point is calculated with respect to the control sample (0 min time-point).
A working solution of compound (500 μM) is prepared in DMSO (100%). To 735 μL of plasma, 15 μL of working solution of compound is added—resulting in a final concentration of 10 μM (2% DMSO) for the compound. The sample is then incubated at 37° C. Aliquot is withdrawn at time-points—0, 15, 30, 60, 90 and 120 mins. The reaction is stopped by using chilled acetonitrile containing internal standard (IS). The samples are centrifuged and the supernatants analyzed using LC-MS/MS. The percent remaining of the compound at each time point is calculated with respect to the control sample (0 min time-point).

[3] = iv, 1 mg/kg, Test Animal 1, read-out: Plasma concentration
[4] = iv, 1 mg/kg, Test Animal 2, read-out: Plasma concentration
[5] = iv, 1 mg/kg, Test Animal 3, read-out: Plasma concentration
[6] = iv, 1 mg/kg, mean, read-out: Average plasma concentration, Mean
[7] = iv, 1 mg/kg, dog PK study 1, intravenous, Test Animal 1
[8] = iv, 1 mg/kg, dog PK study 1, intravenous, Test Animal 2
[9] = iv, 1 mg/kg, dog PK study 1, intravenous, Test Animal 3
[10] = iv, 1 mg/kg, dog PK study 1, intravenous, mean
[11] = po, 5 mg/kg, dog PK study 1, oral, Test Animal 1
[12] = po, 5 mg/kg, dog PK study 1, oral, Test Animal 2
[13] = po, 5 mg/kg, dog PK study 1, oral, Test Animal 3
[14] = po, 5 mg/kg, dog PK study 1, oral, mean
[15] = dog PK study 1, intravenous, Test Animal 1
[16] = dog PK study 1, intravenous, Test Animal 2
[17] = dog PK study 1, intravenous, Test Animal 3
[18] = dog PK study 1, intravenous, mean
[19] = dog PK study 1, oral, Test Animal 1
[20] = dog PK study 1, oral, Test Animal 2
[21] = dog PK study 1, oral, Test Animal 3

CNC(=O)c1[nH]c(C(=O)NC2CCC2)cc1O[C@@H](C)c1ccccc1 (stereo in doubt) [Example 101, N^5-cyclobutyl-N^2-methyl-3-(1-phenylethoxy)-1H-pyrrole-2,5-dicarboxamide]
plasma concentration as a function of time (FIG. 1A) ([1]; beagle dogs, 1 mg/kg IV, group 1): Decreases in plasma concentration were consistent across all animals and timepoints
time post-administration at which plasma concentrations began to steadily decrease (FIG. 1B) ([1]; beagle dogs, 5 mg/kg PO, group 2): approximately 1 h
tolerability ([1]; beagle dogs, PK studies 1 and 2, oral and intravenous): capable of being administered orally and intravenously and well tolerated
concentration at 0.083 h [1, 3]: 1340 ng/mL
concentration at 0.083 h [1, 4]: 1320 ng/mL
concentration at 0.083 h [1, 5]: 1370 ng/mL
concentration at 0.083 h [1, 6]: 1340 ng/mL
concentration at 0.25 h [1, 3]: 1120 ng/mL
concentration at 0.25 h [1, 4]: 954 ng/mL
concentration at 0.25 h [1, 5]: 1110 ng/mL
concentration at 0.25 h [1, 6]: 1060 ng/mL
concentration at 0.5 h [1, 3]: 1040 ng/mL
concentration at 0.5 h [1, 4]: 747 ng/mL
concentration at 0.5 h [1, 5]: 867 ng/mL
concentration at 0.5 h [1, 6]: 885 ng/mL
concentration at 1 h [1, 3]: 623 ng/mL
concentration at 1 h [1, 4]: 580 ng/mL
concentration at 1 h [1, 5]: 520 ng/mL
concentration at 1 h [1, 6]: 574 ng/mL
concentration at 2 h [1, 3]: 314 ng/mL
concentration at 2 h [1, 4]: 265 ng/mL
concentration at 2 h [1, 5]: 313 ng/mL
concentration at 2 h [1, 6]: 297 ng/mL
concentration at 4 h [1, 3]: 81.6 ng/mL
concentration at 4 h [1, 4]: 56.5 ng/mL
concentration at 4 h [1, 5]: 68 ng/mL
concentration at 4 h [1, 6]: 68.7 ng/mL
concentration at 8 h [1, 3]: 15.7 ng/mL
concentration at 8 h [1, 4]: 3.65 ng/mL
concentration at 8 h [1, 5]: 4.61 ng/mL
concentration at 8 h [1, 6]: 8 ng/mL
concentration at 24 h [1, 3]: 0 ng/mL
concentration at 24 h [1, 4]: 0 ng/mL
concentration at 24 h [1, 5]: 0 ng/mL
concentration at 24 h [1, 6]: 0 ng/mL
AUC(0-inf) [1, 7]: 2100 ng·h/mL
AUC(0-t) [1, 7]: 2070 ng·h/mL
C0 [1, 7]: 1460 ng/mL
half-life [1, 7]: 1.42 h
MRT inf [1, 7]: 1.54 h
Vd [1, 7]: 0.734 L/kg
AUC(0-inf) [1, 8]: 1720 ng·h/mL
AUC(0-t) [1, 8]: 1720 ng·h/mL
C0 [1, 8]: 1550 ng/mL
half-life [1, 8]: 0.976 h
MRT inf [1, 8]: 1.29 h
Vd [1, 8]: 0.747 L/kg
AUC(0-inf) [1, 9]: 1870 ng·h/mL
AUC(0-t) [1, 9]: 1860 ng·h/mL
C0 [1, 9]: 1520 ng/mL
half-life [1, 9]: 0.992 h
MRT inf [1, 9]: 1.35 h
Vd [1, 9]: 0.719 L/kg
AUC(0-inf) [1, 10]: 1900 ng·h/mL
AUC(0-t) [1, 10]: 1880 ng·h/mL
C0 [1, 10]: 1510 ng/mL
half-life [1, 10]: 1.13 h
MRT inf [1, 10]: 1.39 h
Vd [1, 10]: 0.733 L/kg
AUC(0-t) [1, 11]: 4520 ng·h/mL
Cmax [1, 11]: 2220 ng/mL
Tmax [1, 11]: 1 h
AUC(0-inf) [1, 12]: 2960 ng·h/mL
AUC(0-t) [1, 12]: 2930 ng·h/mL
Cmax [1, 12]: 1550 ng/mL
Tmax [1, 12]: 0.5 h
half-life [1, 12]: 1.15 h
MRT inf [1, 12]: 1.62 h
AUC(0-inf) [1, 13]: 5010 ng·h/mL
AUC(0-t) [1, 13]: 5000 ng·h/mL
Cmax [1, 13]: 2240 ng/mL
Tmax [1, 13]: 1 h
half-life [1, 13]: 0.845 h
MRT inf [1, 13]: 1.83 h
AUC(0-inf) [1, 14]: 3980 ng·h/mL
AUC(0-t) [1, 14]: 4150 ng·h/mL
Cmax [1, 14]: 2000 ng/mL
Tmax [1, 14]: 0.83 h
half-life [1, 14]: 1 h
MRT inf [1, 14]: 1.73 h
AUClast/D [1, 15]: 2066 (ng · h/mL)/(mg/kg)
AUC—% Extrap—obs [1, 15]: 1.54%
Cl_obs [1, 15]: 7.94 mL/min/kg
AUClast/D [1, 16]: 1718 (ng · h/mL)/(mg/kg)
AUC—% Extrap—obs [1, 16]: 0.298%
Cl_obs [1, 16]: 9.67 mL/min/kg
AUClast/D [1, 17]: 1864 (ng · h/mL)/(mg/kg)
AUC—% Extrap—obs [1, 17]: 0.353%
Cl_obs [1, 17]: 8.91 mL/min/kg
AUClast/D [1, 18]: 1883 (ng · h/mL)/(mg/kg)
AUC—% Extrap—obs [1, 18]: 0.73%
Cl_obs [1, 18]: 8.84 mL/min/kg
AUClast/D [1, 19]: 903 (ng · h/mL)/(mg/kg)
F [1, 19]: 48.0%
AUClast/D [1, 20]: 586 (ng · h/mL)/(mg/kg)
AUC—% Extrap—obs [1, 20]: 0.831%
F [1, 20]: 31.1%
AUClast/D [1, 21]: 1000 (ng · h/mL)/(mg/kg)
AUC—% Extrap—obs [1, 21]: 0.232%
F [1, 21]: 52.8%
AUClast/D ([1]; dog PK study 1, oral, mean): 830 (ng · h/mL)/(mg/kg)
AUC—% Extrap—obs ([1]; dog PK study 1, oral, mean): 0.531%
F ([1]; dog PK study 1, oral, mean): 44.0%
animal's temperature ([1]; 4 h timepoint): 36.4 °C
animal's temperature ([1]; 6 h timepoint): 38.1 °C
Plasma Stability (% remaining at 120 minutes), Human [2]: 93%
